{"source": "patent US10221162B2", "about": "“Triazole agonists of the APJ receptor” (priority 2015, dated 2019)", "key": {"heart failure rat model": {"system": "heart failure rat model", "assay": "In vivo cardiac contractility in heart failure (MI) rat model", "conditions": "heart failure rats, acute administration for 30 min, result in words", "method": "Male Lewis rats (Charles River, USA) at 2-3 months of age were used for the study. […] APJ agonists were administered dose dependently acutely for a period of 30 min.\nThe interaction between […] (ACE2) and Apelin biology is complicated. To investigate the interaction between the Apelin-APJ and ACE signalling pathways, we examined the improvement in cardiac function with APJ small molecule agonists in the presence of ACE inhibitor captopril in heart failure rats in vivo."}, "[1]": {"system": "naive Sprague Dawley rat hearts", "assay": "Langendorff isolated perfused rat heart (ex vivo contractility and relaxation)", "conditions": "Langendorff apparatus, as a function of concentration"}}, "data": [{"smiles": "COc1cccc(OC)c1-n1c(NS(=O)(=O)[C@@H](C)[C@H](C)c2ncc(C)cn2)nnc1-c1cncc(C)c1", "note": "[Example 263.0, (2S,3R)—N-(4-(2,6-dimethoxyphenyl)-5-(5-methylpyridin-3-yl)-4H-1,2,4-triazol-3-yl)-3-(5-methylpyrimidin-2-yl)butane-2-sulfonamide]", "values": [{"measurement": "cardiac contractility as measured by dP/dt", "setting": "heart failure rat model", "result": "increase in cardiac contractility"}, {"measurement": "left ventricular dP/dtmax (load independent cardiac contractility)", "setting": "[1]", "result": "increases load independent cardiac contractility"}, {"measurement": "left ventricular dP/dtmin (load independent cardiac relaxation)", "setting": "[1]", "result": "increases load independent cardiac relaxation"}]}]}
